This experiment relates to polyglutamine-induced caspase-3 activation, cell assay. The experiment in a line: polyglutamine-triggered caspase-3 activation inhibitors, cell-based (AID 1583).
For orientation: EC50 means the concentration giving half of the maximal effect. Low readings indicate greater potency, high ones weaker potency. Take `C[C@@]1(C(=O)O)CC[C@]2(C)CC[C@]3(C)C4=CC=C5C=C(O)C(=O)C=C5[C@]4(C)CC[C@@]3(C)[C@@H]2C1`: the concentration for a half-maximal effect (EC50) came out at 4630 nM.
`C[C@]12CCC3C(CC[C@]4(O)C[C@@H](O)CC[C@]34C=O)[C@@]1(O)CCC2C1=CC(=O)OC1` (some centres undefined) showed an EC50 of 1680 nM.
The same measure for `CO[C@H]1[C@H](O)[C@H](O[C@H]2CC[C@]3(C)C4CC[C@]5(C)C(C6=CC(=O)OC6)CC[C@]5(O)C4CC[C@@H]3C2)O[C@@H](C)[C@@H]1O` (some centres undefined): 78.6 nM; for `CO[C@H]1[C@H](O)[C@@H](O[C@H]2CC[C@]3(C=O)C4CC[C@]5(C)[C@@H](C6=CC(=O)OC6)CC[C@]5(O)C4CC[C@@H]3C2)O[C@@H](C)[C@@H]1O` (some centres undefined): 93.2 nM; for `C[C@H]1O[C@@H](O[C@H]2[C@@H](O)C[C@H](O[C@H]3[C@@H](O)C[C@H](O[C@H]4CC[C@]5(C)C6CC[C@]7(C)[C@@H](C8=CC(=O)OC8)CC[C@]7(O)C6CC[C@@H]5C4)O[C@@H]3C)O[C@@H]2C)C[C@H](O)[C@@H]1O` (some centres undefined): 189 nM.
The same measure for `CC(=O)O[C@H]1C[C@H](O[C@H]2[C@@H](O)C[C@H](O[C@H]3[C@@H](O)C[C@H](O[C@H]4CC[C@@]5(C)C(CCC6C5C[C@@H](O)[C@]5(C)[C@@H](C7=CC(=O)OC7)CC[C@]65O)C4)O[C@@H]3C)O[C@@H]2C)O[C@H](C)[C@H]1O[C@@H]1O[C@H](CO)[C@@H](O)[C@H](O)[C@H]1O` (some centres undefined): 7470 nM; for `CC(=O)[O][Hg][c]1ccccc1`: 1740 nM.
The compound `CCCCC(CC)CN=C(N)NC(N)=NCCCCCCN=C(N)NC(N)=NCC(CC)CCCC` (centres undefined) gave a concentration for a half-maximal effect (EC50) of 1670 nM.
Take `O[N+]1=CC=CCC1=S.On1ccccc1=S.[Zn]`: the EC50 came to 855 nM.
